Test results from patent US9649305B2, “PFKFB3 inhibitor and methods of use as an anti-cancer therapeutic” (ADVANCED CANCER THERAPEUTICS, LLC, priority 2012, dated 2017).
Where two headings read alike, the source gives them in different places. Blank lines part the entries; values can stand above or below the compound they belong to.

Assays:
PFKFB3 [1] = molecular target: T1, PFKFB3 (Homo sapiens, UniProt Q16875); test: Enzymatic activity of recombinant PFKFB3, ADP-Glo assay; assay type: biochemical
Method: The inducible bifunctional 6-Phosphofructo-2-kinase/fructose2,6-biphosphatase enzyme (PFKFB3) was expressed and purified in order to determine if PFK-158 inhibits enzymatic activity. PFKFB3 was prepared by expression in E. coli and purified by GST column and column chromatography. […] The recombinant protein was pure and active as determined by the results of a commercially available kinase activity assay (ADP-Glo™, Promega, Madison, Wis.).

Jurkat cells = test: Inhibition of 14C-2-deoxyglucose uptake; assay type: cell-based; conditions: Homo sapiens, read-out: IC50, Inhibition of 2 deoxyglucose uptake
Method: Inhibition of PFKFB3 results in inhibiting glycolysis. Several feedback or feedforward activation and inhibition mechanisms exist so that, by a feedback mechanism, inhibiting the activity of PFKFB3 might inhibit glucose uptake by cells. An assay was developed to determine if there was inhibition of glucose uptake following exposure PFK-158. Briefly, Jurkat cells were plated at 10^5 cells/mL in RPMI 1640 supplemented with 10% fetal bovine serum and 50 μg/mL gentamicin sulfate. Cells were immediately treated with vehicle or 0.5 μmol/L of PFK-158 for 3 hours and subsequently placed in glucose-free RPMI 1640 for 30 min. ^14C-2-deoxyglucose (0.25 μCi/mL; Perkin Elmer) was added for an additional 60 min and cells were then washed three times with ice-cold RPMI 1640 containing no glucose. Cell lysates were collected in 500 μL of 0.1% SDS and scintillation counts (counts/min) were measured on 400 μL of lysate. Counts were normalized to protein concentration.

[2] = tested on: Jurkat cell line (leukemia cell line); test: Toxicity / cell growth of Jurkat cell line; assay type: cell-based; conditions: Homo sapiens, Jurkat, read-out: IC50, toxicity of Jurkat cell line (leukemia cell line)
Method: The ability of PFK-158 to kill or inhibit the proliferation of cancer cells was measured using either the MTT assay, the alamarBlue® assay (Invitrogen, Grand Island, N.Y.), or the CellTiter Glo™ assay (Promega, Madison, Wis.) using 48 or 72 hours exposure.
Cells of the desired tumor cell line were plated at 2×10^5 cells/ml in 96 well plates. Twice the indicated concentrations of the compounds of the invention were added to cells the following day in an equal volume of media. 72 hours later, cells were lysed and subjected to ATP determination using the CellTiter-Glo™ Luminescent Cell Viability Assay kit. Experiments were performed in triplicate. When using the MTT assay or the alamarBlue® assay, the experimental conditions are essentially similar; at the end of the incubation period, 20 microliters of the MTT solution is added per well and the samples are incubated for an additional four hours, rinsed, and absorbance at 570 nm was measured. Results for the inhibition of cell proliferation are reported as the IC50 (the concentration resulting in 50% inhibition of proliferation of the cell population) and are listed in Table 5 below. Cell lines include lung, colon, prostate, breast, ovarian, and pancreatic cancer lines.

[3] = IV pharmacokinetics in mice; assay type: in vivo, Balbc mice; conditions: mouse, plasma, 5 mg/kg, IV dosing; for AUC(0-inf): read-out: AUC0-inf; for Cmax: read-out: Cmax
Method: The pharmacokinetic (PK) parameters for PFK-158 were determined in mice following IV (intravenous) administration in mice and rats. A typical study design includes six animals (male or female) 7 to 8 weeks old.
Mouse pharmacokinetic properties using a dose of 5 mg/kg were determined after IV administration using a 10% DMSO, 10% PEG-200, 10% Solutol:ethanol (1:1) and 70% D5W solution or any other pharmaceutically acceptable parenteral formulation. Blood samples were collected at different intervals. Plasma samples were extracted and analyzed using an LC-MS/MS method. Similar protocols were used for the rat PK study (Sprague Dawley rats; 30 mg/kg), although the formulation for rat PK studies differed (30% Captisol, pH 3.0 solution). Time vs. plasma concentration plots were prepared as shown in FIGS. 4 (BalbC mice) and 5 (SD rats), respectively. Pharmacokinetic parameters were calculated and are provided below in Table 7.

PFKFB3 [4] = molecular target: T1, PFKFB3; test: Enzymatic activity of PFKFB3 in cells (F2,6BP levels, Van Schaftingen method); assay type: cell-based; set-up: endogenous in cells; host or cells: Jurkat cells; conditions: read-out: IC50, Enzymatic activity of PFKFB3 in cells
Method: Inhibition of PFKFB3 can also be measured in cells by measuring fructose-2,6-biphosphate levels according to the Van Schaftingen method (Eur. J. of Biochem, 129: 191 (1982)). This method enables measurement of the inhibition in a cellular environment, a model more relevant than the pure recombinant protein. Briefly, Jurkat cells were plated at 1×10^5 cells/mL and incubated with different concentrations of PFK-158 for 3 hours. Samples were collected and cells were lysed. Extracts were characterized as described in previous reports and normalized to protein concentration.

[5] = IV pharmacokinetics in rats, 40 mg/kg; assay type: in vivo; conditions: IV 40 mg/kg; for Plasma AUC0→t: Captisol solution
Method: (§1) In another embodiment, a cyclodextrin based solution was used to investigate the PK profile of PFK-158, 2HCl at a higher concentration in both rats and dogs.
(§2) The solution was prepared with 40% w/v Captisol® in water for injection, 5% Mannitol, and a pH 2.3 citrate buffer leading to a 8 mg/ml concentration of PFK-158, 2HCl. This solution was safely administered IV to rats and dogs at a dose of 40 mg/kg. Blood samples were taken over a 24 hour period and analyzed. […] Pharmacokinetic parameters were calculated in the same way in dogs: plasma AUC0→24 values of 16,100±700 and 15,900±2600 hr·ng/mL, and plasma C5 min values of 6960±1180 and 6900±900 ng/mL were obtained for male and female dogs, respectively.

[6] = IV pharmacokinetics in dogs, 40 mg/kg; assay type: in vivo; conditions: IV 40 mg/kg
Method: as §1, §2

[7] = In vitro stability in human liver microsomes; assay type: in vitro ADME
[8] = Maximum tolerated dose study; assay type: in vivo; conditions: C57/B16, mouse, in vivo; 3 days on/3 days off schedule; read-out: MTD
Method: Several maximum tolerated dose studies and toxicology studies were performed and the results indicated PFK-158 is safer than PFK-015. Studies were performed in C57/B16 mice and SD rats.

[9] = Repeat-dose toxicology study in SD rats; assay type: in vivo
Method: Toxicology studies were performed in SD rats comparing PFK-158 and PFK-015 using a repeat dosing schedule. The studies were performed at dose levels ranging from 5 to 30 mg/kg and animals were monitored for weight loss, behavior, clinical signs, and clinical chemistries. At the end of the study, gross pathology and histopathology were performed.

[10] = tested on: lung cancer model, pancreatic cancer model, colon cancer model; test: Tumor growth inhibition in mouse cancer models; conditions: mouse cancer models, during treatment
Method: Studies determining efficacy of PFK-158 at inhibiting tumor growth in mouse cancer models were performed. These studies were carried out with PFK-158 alone and in combination with compounds currently used in the treatment of cancer patients. Studies were performed in a lung cancer model, a pancreatic cancer model, and in a colon cancer model.
Efficacy of PFK-158 was studied in vivo in tumor models. Several tumor models were used in these studies (the Lewis lung carcinoma, or LLC model, the CT-26 colon carcinoma tumor model, or the BXPC3 pancreatic cancer model). The experimental protocol for the LLC study is described below. Subsequent to subcutaneous inoculation of tumor cells, tumors started to develop and once tumors reached the desired volume of 100-125 mm^3 on average, treatment was initiated. Tumor volume was monitored in both groups and the average for both the control and treatment groups was measured three times a week, as well as body weights.
Briefly, normal female C57BL/6 mice at 7-8 weeks of age were used for the study. Mice were housed in microisolator housing, with food and water provided as libitum, and quarantined for 4 days prior to the initiation of the study. LLC cells were maintained in a monolayer culture in DMEM medium supplemented with 10% heat inactivated fetal calf serum, 100 U/ml penicillin and 100 μg/ml streptomycin, and L-glutamine (2 mM) at 37° C. in an atmosphere of 5% CO2 in air. The tumor cells were routinely sub-cultured twice a week. The cells growing in an exponential phase were harvested and counted for tumor inoculation. Each mouse was inoculated subcutaneously at the right flank with the LLC tumor cells (3×10^5) in 0.1 ml of PBS for tumor development. When athymic nude mice were used, as for the BxPC3 model, then the strain of mice is slightly different. Furthermore, the use of Matrigel supports tumor development, meaning that cells are suspended in 100 μl of a mixture of medium/Matrigel (1:1) and are then subcutaneously implanted in the right flank region. Animals were monitored for tumor growth daily after cell implantation. When tumor volumes reached approximately 100-125 mm^3, mice were randomized into groups of 8 mice each using only mice having tumor volumes closest to the mean value. Tumor volumes were measured using the formula V=L×W×H×π/6, where L and W represent the longer and shorter diameters of the tumor and H represents the height of the tumor. Treatment began following randomization. PFK-158 was administered IP at a dose of 60 mg/kg on days 1, 3, 5, 7, 9, 11, and 13.
Similar protocols were used for the other studies using different models; differences included the use of Balbc/nude mice; administering larger number of cancer cells; and use of Matrigel.

[11] = Table 8, read-out: IC50, Enzymatic activity of PFKFB3, ADP-Glo Assay

T1 sequence (Q16875 whole entry): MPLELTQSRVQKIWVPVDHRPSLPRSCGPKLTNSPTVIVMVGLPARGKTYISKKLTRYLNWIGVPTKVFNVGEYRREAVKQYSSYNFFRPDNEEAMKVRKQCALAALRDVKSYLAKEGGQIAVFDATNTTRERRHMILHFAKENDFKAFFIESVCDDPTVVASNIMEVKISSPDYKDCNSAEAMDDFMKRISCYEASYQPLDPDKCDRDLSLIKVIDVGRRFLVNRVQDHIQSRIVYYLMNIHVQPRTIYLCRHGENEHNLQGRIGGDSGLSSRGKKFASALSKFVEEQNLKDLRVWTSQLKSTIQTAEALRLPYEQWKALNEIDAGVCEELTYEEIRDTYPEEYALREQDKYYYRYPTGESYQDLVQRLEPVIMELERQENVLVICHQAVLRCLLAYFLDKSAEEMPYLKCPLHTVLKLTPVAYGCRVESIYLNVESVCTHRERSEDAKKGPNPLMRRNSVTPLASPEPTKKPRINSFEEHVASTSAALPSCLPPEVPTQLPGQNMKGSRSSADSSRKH

SMILES: Cl.Cl.O=C(/C=C/c1ccc2ccc(C(F)(F)F)cc2n1)c1ccncc1 [PFK-158, 2HCl]
plasma Cmax ([5]; female rats): 39,500±10,000 ng/mL
Plasma AUC0→t ([5]; female rats): 27,700±5800 hr·ng/mL
plasma Cmax ([5]; male rats): 51,400±6300 ng/mL
Plasma AUC0→t ([5]; male rats): 37,600±2800 hr·ng/mL
plasma AUC0→24 ([6]; female dogs): 15,900±2600 hr·ng/mL
plasma C5 min ([6]; female dogs): 6900 ± 900 ng/mL
plasma AUC0→24 ([6]; male dogs): 16,100±700 hr·ng/mL
plasma C5 min ([6]; male dogs): 6960 ± 1180 ng/mL

SMILES: O=C(/C=C/c1ccc2cc(OCCN3CCCCC3)ccc2n1)c1ccncc1 [PFK-150, 3-(6-(2-piperidin-1-yl-ethoxy)-quinolin-2-yl)-1-pyridin-4-yl-propenone]
IC50 (PFKFB3 [1]; [11]): 802 ± 177 nM
IC50 (Jurkat cells; Jurkat, Table 8): 3800 ± 800 nM
IC50 ([2]; Table 8): 2500 ± 400 nM
clearance ([3]; Table 9, BalbC mice): 1330 mL/min/kg
half-life ([3]; Table 9, BalbC mice): 2.5 h
AUC(0-inf) ([3]; Table 9, BalbC mice): 63 ng·h/mL
Cmax ([3]; Table 9, BalbC mice): 40 ng/mL
IC50 (PFKFB3 [4]; Table 8): 15600 ± 1400 nM

SMILES: COc1ccc2nc(/C=C/C(=O)c3ccnc(OC)c3)ccc2c1 [PFK-144, 1-(2-methoxy-pyridin-4-yl)-3-(6-methoxy-quinolin-2-yl)-propenone]
IC50 (PFKFB3 [1]; [11]): 654 ± 94 nM
IC50 (Jurkat cells; Jurkat, Table 8): 3100 ± 500 nM
IC50 ([2]; Table 8): 1700 ± 300 nM
clearance ([3]; Table 9, BalbC mice): 120 mL/min/kg
half-life ([3]; Table 9, BalbC mice): 2.8 h
AUC(0-inf) ([3]; Table 9, BalbC mice): 696 ng·h/mL
Cmax ([3]; Table 9, BalbC mice): 1500 ng/mL
IC50 (PFKFB3 [4]; Table 8): 10700 ± 300 nM

SMILES: O=C(/C=C/c1ccc2ccccc2n1)c1ccncc1 [PFK-015]
IC50 (PFKFB3 [1]; Table 1, read-out: IC50, Enzymatic activity of PFKFB3, ADP Glo Assay): 318 ± 19 nM
IC50 (Jurkat cells; Table 1, Jurkat cells): 1200 ± 100 nM
IC50 ([2]; Table 1): 800 ± 100 nM
clearance ([3]; Table 2, Balbc mice): 46 mL/min/kg
half-life ([3]; Table 2, Balbc mice): 5 h
AUC(0-inf) ([3]; Table 2, Balbc mice): 1800 ng·h/mL
Cmax ([3]; Table 2, Balbc mice): 3050 ng/mL
Percent metabolized after 1 hr [7]: 67%
MTD [8]: 30 mg/kg
MTD ([9]; rat, in vivo, repeat dosing schedule): 12 mg/kg
Adverse observations in toxicology study ([9]; repeat dosing, PFK-158 5 to 30 mg/kg, PFK-015 12 and 25 mg/kg): adverse observations at both dose levels
body weight loss [10]: higher than 15%
IC50 (PFKFB3 [4]; Table 1, F2,6BP levels, Jurkat cells): 4700 ± 1600 nM

Continued, in another order:

IC50 (PFKFB3 [1]; [11]): 431 ± 34 nM
IC50 (Jurkat cells; Jurkat, Table 8): 2200 ± 300 nM
clearance ([3]; Table 9, BalbC mice): 154 mL/min/kg
half-life ([3]; Table 9, BalbC mice): 0.7 h
AUC(0-inf) ([3]; Table 9, BalbC mice): 541 ng·h/mL
Cmax ([3]; Table 9, BalbC mice): 991 ng/mL
IC50 (PFKFB3 [4]; Table 8): 7400 ± 1800 nM
SMILES: COc1ccc2nc(/C=C/C(=O)c3ccncc3)ccc2c1 [PFK-138, 3-(6-methoxy-quinolin-2-yl)-1-pyridin-4yl-propenone]
IC50 ([2]; Table 8): 1200 ± 200 nM

IC50 (PFKFB3 [1]; [11]): 173 ± 23 nM
IC50 (Jurkat cells; Jurkat, Table 8): 1200 ± 600 nM
clearance ([3]; Table 9, BalbC mice): 327 mL/min/kg
half-life ([3]; Table 9, BalbC mice): 3.8 h
AUC(0-inf) ([3]; Table 9, BalbC mice): 225 ng·h/mL
Cmax ([3]; Table 9, BalbC mice): 397 ng/mL
IC50 (PFKFB3 [4]; Table 8): 6000 ± 600 nM
SMILES: O=C(/C=C/c1ccc2cccc(C(F)(F)F)c2n1)c1ccncc1 [PFK-153, 1-Pyridin-4-yl-3-(8-trifluoromethyl-quinolin-2-yl)-propenone]
IC50 ([2]; Table 8): 900 ± 100 nM

IC50 (Jurkat cells; Jurkat, Table 8): 2200 ± 600 nM
clearance ([3]; Table 9, BalbC mice): 75 mL/min/kg
half-life ([3]; Table 9, BalbC mice): 6.1 h
AUC(0-inf) ([3]; Table 9, BalbC mice): 1100 ng·h/mL
Cmax ([3]; Table 9, BalbC mice): 672 ng/mL
IC50 (PFKFB3 [4]; Table 8): 11300 ± 600 nM
SMILES: Cc1ccc2ccc(/C=C/C(=O)c3ccncc3)nc2c1 [PFK-154, 3-(7-Methyl-quinolin-2-yl)-1-pyridin-4-yl-propenone]
IC50 ([2]; Table 8): 1300 ± 100 nM
